{"source": "patent US20160095958A1", "about": "“BONE REGENERATION USING STROMAL VASCULAR FRACTION, PLATELET-DERIVED GROWTH FACTOR-RICH HYDROGEL, THREE-DIMENSIONAL PRINTED POLY-EPSILON-CAPROLACTONE SCAFFOLDS” (THE JOHNS HOPKINS UNIVERSITY, priority 2013, published 2016)", "type_in_all_cases": "cell-based, human", "key": {"[1]": {"tested_on": "adipose-derived stem cells (ASCs)", "assay": "Osteogenic differentiation of ASCs with transient cytokine exposure", "conditions": "IL-1β only for the first two days, then cultured without it", "excerpt": "In each case, the cytokine was provided for the first two days of culture and removed for the remaining 19 days. The samples are stained for calcium deposition (red) which is indicative of new bone formation;\nAccordingly, cells were provided with IL-1β only for the first two days and cultured in the absence of IL-1β for the remaining three weeks of culture."}, "ASCs [2]": {"tested_on": "ASCs", "assay": "Monolayer osteogenic differentiation of ASCs (Alizarin Red S, calcium quantification)", "conditions": "for calcium deposition per cell / total calcium deposition: ASCs in OM for 21 days, PDGF-BB 0, 2, 20 ng/mL or AG1295 0, 1, 10 μM", "description": "(§1) Vascular medium (VM) consisted of: Endothelial Basal Medium-2 (Lonza), 6% FBS, 1% penicillin/streptomycin, 10 ng/mL VEGF165, 1 ng/mL FGF-2, and 1 μg/mL L-ascorbic acid-2-phosphate (Sigma). For monolayer osteogenic differentiation experiments, control medium consisted of low glucose DMEM (GIBCO Invitrogen), 6% FBS, and 1% penicillin/streptomycin; Osteogenic Medium (OM) consisted of control medium plus 10 mM β-glycerophosphate (Sigma) and 50 μM L-ascorbic acid-2-phosphate. For osteogenic differentiation in fibrin gels, OM also included 10 ng/mL VEGF165 and 1 ng/mL FGF-2 to support vascular viability. The composition of FGF-2 and dexamethasone in VM and OM were optimized to support both vascular and osteogenic development (FIG. 2). […] All growth factors were purchased from PeproTech.\n(§2) For monolayer experiments, ASCs were seeded at 5000 cells/cm^2 and cultured in either control medium or OM for 21 days, with the addition of either PDGF-BB or PDGF receptor inhibitor tyrphostin AG1295 (Santa Cruz Biotechnology). Mineralization was assessed via Alizarin Red S staining and quantification of calcium content. For fibrin gel experiments, samples were cultured in VM for up to 8 days followed by up to 12 days of OM supplemented with VEGF and FGF-2. Mineralization was assessed via quantification of calcium content normalized to DNA content. For Alizarin Red S staining, monolayers were washed twice with PBS, fixed with 3.7% formaldehyde for 20 min, and then washed again three times. Samples were subsequently incubated for 10 min with 40 mM Alizarin Red S (Sigma) and washed extensively prior to imaging. To quantify calcium content in each sample, monolayers or whole fibrin gels were washed twice with PBS and then incubated with 0.5 N HCl overnight at 4° C. with agitation. Calcium content in the sample supernatants was quantified using a colorimetric Calcium LiquiColor Test (Stanbio). DNA content was quantified using a PicoGreen dsDNA quantitation kit (Molecular Probes) as previously described. Hutton D. L., et al., Tissue Eng Part A 18, 1729-40, 2012.\nThe effects of exogenous PDGF-BB on osteogenic differentiation and vascular morphogenesis of ASCs were studied independently. ASCs were cultured in OM for 21 days with the addition of either PDGF-BB (0 ng/mL, 2 ng/mL, or 20 ng/mL) or PDGF receptor inhibitor AG1295 (0 μM, 1 μM, or 10 μM)."}, "ASCs [3]": {"tested_on": "ASCs", "assay": "Vascular morphogenesis of fibrin-encapsulated ASC spheroids in vascular medium", "description": "Cells were trypsinized and resuspended at a concentration of 400,000 cells/mL (this concentration varied in the aggregation study where different cluster sizes were being compared) in culture medium containing 0.24% (w/v) methylcellulose (Sigma). The cell suspension was pipetted as 10 μL drops onto inverted Petri dish caps, which were then reverted and placed on dish bottoms containing sterile water to reduce evaporation. Dishes were incubated at 37° C. overnight to allow cellular aggregation at the air-liquid interface. The dish caps were then flooded with PBS to allow bulk collection and transfer of the spheroids to conical tubes.\n(§3) Settled spheroid pellets were resuspended in fibrinogen (8 mg/mL final; Sigma), followed by the addition of thrombin (2.5 U/mL final; Sigma) to initiate gelation. Fibrin gels (35 μL) containing 40 spheroids each (in the aggregation study the number of spheroids per gel was varied to keep the total cell number constant) were pipetted into 6-mm diameter wells and incubated at 37° C. for 30 minutes to allow complete gelation prior to the addition of culture medium. Samples were then cultured for two to three weeks, depending on the experiment, with media changed every other day.\nas §1\n(§4) All incubation and washing steps were carried out at 4° C. with gentle agitation. Samples were fixed with 3.7% formaldehyde for 3 hrs, and then washed with PBS three times for 30 min each. Fixed gels were carefully removed from their wells and transferred to microcentrifuge tubes for subsequent staining procedures. Gels were permeabilized and blocked for 4 hrs with 0.2% triton X-100 and 5% normal goat serum (Sigma) in PBS with 0.1% Tween (PTw). Samples were then incubated overnight with primary antibodies diluted in blocking solution, followed by three 1-hr washes in PTw. Primary antibodies included: mouse anti-CD31 (4 μg/mL; Santa Cruz Biotechnology) and either rabbit anti-laminin (7 μg/mL; Sigma), rabbit anti-osteocalcin (10 μg/mL; Santa Cruz Biotechnology), or rabbit anti-NG2 (10 μg/mL; Millipore). Samples were then incubated overnight with DyLight 488-conjugated goat anti-mouse and DyLight 649-conjugated goat anti-rabbit (both 1:400; Jackson ImmunoResearch) diluted in blocking solution, followed by three 1-hr washes in PTw. Lastly, samples were blocked in 5% normal mouse serum for 4 hrs, incubated overnight with Cy3-conjugated mouse anti-αSMA (7 μg/mL; Sigma), and then washed three times for 1 hr each. Gels were mounted in 70% glycerol in chamber slides and imaged using a Zeiss LSM 510 confocal microscope with a 5× objective.\nConfocal z-stacks of immunostained gels were z-projected and thresholded for subsequent quantification of vessel network parameters (n=6 images per group). Thresholded images were analyzed with AngioQuant software, Niemisto A., et al., IEEE Trans Med Imaging 24, 549-53, 2005, to quantify total vessel length, area, and interconnectivity. ImageJ software (NIH) was used to quantify pericyte coverage of vessels, which was defined as αSMA+ area within at least 5 μm of the abluminal face of vessel networks. […]"}, "ASCs [4]": {"tested_on": "ASCs", "assay": "Vascularized bone co-development: encapsulated ASC spheroids, VM 8 days then OM 12 days", "description": "as §3\nas §1, with “viability.” for “viability. The composition of FGF-2 and dexamethasone in VM and OM were optimized to support both vascular and osteogenic development (FIG. 2).”\nas §2, §4"}, "[5]": {"conditions": "medium optimization with dexamethasone and FGF-2"}}, "data": [{"compound": "IL-1β: pro-inflammatory cytokine", "values": [{"measurement": "ASC differentiation into bone-forming cells", "setting": "[1]", "value": "dose dependent effect"}]}, {"compound": "FGF-2: fibroblast growth factor-2 (PeproTech)", "values": [{"measurement": "calcium deposition in osteogenic cultures", "setting": "ASCs [2]; 1 ng/mL FGF-2, dexamethasone 0 nM to 10 nM", "value": "significantly greater calcium deposition"}, {"measurement": "pericyte coverage in vascular cultures", "setting": "ASCs [3]; [5]", "value": "slight increase"}, {"measurement": "vessel network growth / length in vascular cultures", "setting": "ASCs [3]; [5]", "value": "slight increase"}, {"measurement": "vessel width in vascular cultures", "setting": "ASCs [3]; [5]", "value": "increased vessel width"}]}, {"compound": "Cc1cc2ncc(-c3ccccc3)nc2cc1C", "note": "[AG1295, tyrphostin AG1295, reference compound]", "values": [{"measurement": "calcium deposition per cell", "setting": "ASCs [2]", "value": "unchanged relative to the OM only group"}, {"measurement": "total calcium deposition", "setting": "ASCs [2]", "value": "decreased in a dose dependent manner"}, {"measurement": "pericyte coverage", "setting": "ASCs [3]; VM for 14 days", "value": "only slightly reduced"}]}, {"compound": "PDGF-BB: exogenous platelet-derived growth factor-BB, dimeric glycoprotein of two B chains, purchased from PeproTech", "values": [{"measurement": "calcium deposition per cell", "setting": "ASCs [2]", "value": "significantly increased in a dose-dependent manner"}, {"measurement": "total calcium deposition", "setting": "ASCs [2]", "value": "significantly increased in a dose-dependent manner"}, {"measurement": "increase in total vessel length", "setting": "ASCs [3]; 2 ng/mL, VM for 14 days", "value": 1.4, "unit": "fold"}, {"measurement": "vessel width", "setting": "ASCs [3]; 20 ng/mL, VM for 14 days", "value": "noticeably wider"}, {"measurement": "effect on total vessel length overall", "setting": "ASCs [3]; VM for 14 days", "value": "did not have statistically significant effects"}, {"measurement": "reduction of pericyte coverage", "setting": "ASCs [3]; VM for 14 days", "value": 2.9, "unit": "fold"}, {"measurement": "calcium content versus control group (VM-OM)", "setting": "ASCs [4]; 20 ng/mL", "value": "substantially greater than both"}, {"measurement": "vascular network length versus control group (VM-OM)", "setting": "ASCs [4]; 20 ng/mL", "value": "substantially greater than both"}, {"measurement": "calcium deposition, PDGF-BB greater than BMP-2", "setting": "ASCs [4]; 20 ng/mL each", "value": 4.2, "unit": "fold"}, {"measurement": "calcium per cell, PDGF-BB greater than BMP-2", "setting": "ASCs [4]; 20 ng/mL each", "value": 5.6, "unit": "fold"}, {"measurement": "total vascular network length, PDGF-BB higher than BMP-2", "setting": "ASCs [4]; 20 ng/mL each", "value": 2.3, "unit": "fold"}, {"measurement": "calcium content per cell, greater than without PDGF-BB", "setting": "ASCs [4]; 20 ng/mL throughout", "value": 5.2, "unit": "fold"}, {"measurement": "osteocalcin production (semiquantitative), greater than without PDGF-BB", "setting": "ASCs [4]; 20 ng/mL throughout", "value": 1.4, "unit": "fold"}, {"measurement": "vascular network length, greater than without PDGF-BB", "setting": "ASCs [4]; 20 ng/mL throughout", "value": 2.7, "unit": "fold"}, {"measurement": "αSMA intensity, less than without PDGF-BB", "setting": "ASCs [4]; 20 ng/mL throughout", "value": 2.1, "unit": "fold"}]}]}
